Assay results from US5194645A, “Trans-Pt (IV) compounds” (Johnson Matthey Public Limited Company, priority 1991, dated 1993).

What was measured:
OVCAR-3 [1] = experiment: In vivo OVCAR-3 ovarian carcinoma xenograft; set-up: species or system mice; settings: tumour volume vs control
Adj/PC6/iproplatin res = experiment: In vivo Adj/PC6 iproplatin-resistant tumour test in mice
Experimental: (§1) The animals were sacrificed when moribund. The compounds were administered parenterally (ip).

41M ®/41M = experiment: Resistance factor 41M ®/41M; format: cell-based, human; settings: ratio of IC50 resistant to nonresistant line, ovarian
Experimental: (§2) Additional in vitro biological testing was conducted using cell lines derived from human carcinomas and maintained at the Institute of Cancer Research, Sutton, England (see C A Hills & colleagues, Br J Cancer 59, 527-34 (1989)). Monolayer cells were trypsinized and seeded in 96-well microtiter plates at a density of 1×10^4 cells/well in 200 μl of growth medium. Cells were incubated overnight and test compounds were added to triplicate wells at various concentrations for a total of 48 to 96 hours. For toxicity analysis after drug exposure, the cells were fixed with trichloroacetic acid and stained for cellular protein content by incubation for 30 minutes with 0.4% (wt/vol) sulforodamine B (SRB) dissolved in 1% acetic acid. The unbound dye was removed by 1% acetic acid washes, and the bound dye was extracted with 10 mM Tris buffer. The amount of dye in solution was quantified by absorbance at 564 nm.
(§3) In the Tables A and B below, all the cells are ovarian cancer cells with the exception of GCT27^R /GCT27 which are testicular. Table A gives IC50 values in μM; Table B gives Resistance Factors as a ratio of IC50 for a cell line bred to be resistant to cisplatin against IC50 for the nonresistant cell line.

Adj/PC6/cisplatin res = experiment: In vivo Adj/PC6 cisplatin-resistant tumour test in mice
Experimental: as §1

41M = experiment: In vitro cytotoxicity (SRB), 41M; format: cell-based, human; settings: ovarian cancer, 48 to 96 hours
Experimental: as §2, §3

Adj/PC6/tetraplatin res = experiment: In vivo Adj/PC6 tetraplatin-resistant tumour test in mice; set-up: key to ED90: --: indicates 90% inhibition not achieved for doses up to LD50
Experimental: as §1

CHI ® = experiment: In vitro cytotoxicity (SRB), CHI ®; format: cell-based, human; settings: CHI ® (cisplatin resistant), ovarian cancer, 48 to 96 hours
Experimental: as §2, §3

L1210 = experiment: In vivo L1210 leukemia, increase in life span; settings: 9 mg/kg, ip, days 1, 5 and 9, DBA/2 mice
Experimental: as §1
(§4) The compound of Example 2 was tested against L1210 leukemia, and also against a strain of L1210 resistant to cisplatin, in mice, and the increase in life span (ILS) determined against control mice not being administered any active compound, according to the equation, [formula] where T=days survival of treated mice and
(§5) C=days survival of control mice

A2780 ®/A2780 = experiment: Resistance factor A2780 ®/A2780; format: cell-based, human; settings: ratio of IC50 resistant to nonresistant line, ovarian
Experimental: as §2, §3

PXN/94 = experiment: In vitro cytotoxicity (SRB), PXN/94; format: cell-based, human; settings: PXN/94, ovarian cancer, 48 to 96 hours
Experimental: as §2, §3

41M ® = experiment: In vitro cytotoxicity (SRB), 41M ®; format: cell-based, human; settings: 41M ® (cisplatin resistant), ovarian cancer, 48 to 96 hours
Experimental: as §2, §3

CHI ®/CHI = experiment: Resistance factor CHI ®/CHI; format: cell-based, human; settings: ratio of IC50 resistant to nonresistant line, ovarian
Experimental: as §2, §3

GCT27 ®/GCT27 = experiment: Resistance factor GCT27 ®/GCT27; format: cell-based, human; settings: ratio of IC50 resistant to nonresistant line, testicular
Experimental: as §2, §3

HX62 = experiment: In vitro cytotoxicity (SRB), HX62; format: cell-based, human; settings: HX62, ovarian cancer, 48 to 96 hours
Experimental: as §2, §3

SKOV-3 = experiment: In vitro cytotoxicity (SRB), SKOV-3; format: cell-based, human; settings: SKOV-3, ovarian cancer, 48 to 96 hours
Experimental: as §2, §3

Resistant L1210 = experiment: In vivo cisplatin-resistant L1210 leukemia, increase in life span; settings: 9 mg/kg, ip, days 1, 5 and 9, DBA/2 mice, L1210 resistant to cisplatin
Experimental: as §1, §4, §5

OVCAR-3 [2] = experiment: In vivo OVCAR-3 ovarian carcinoma xenograft; set-up: species or system mice; settings: for Growth Delay: delay in doubling of tumour volume vs control
Experimental: The "growth delay" was also measured which represents the delay in achieving a doubling of the tumour volume for the treated group compared to the control group.

Adj/PC6 = experiment: In vivo Adj/PC6 tumour test in mice (LD50, ED90, therapeutic index)
Experimental: The Adj/PC6 testing was carried out as described by P M Goddard et al presented in Sixth NCI-EORTC Symposium on New Drugs in Cancer Therapy 1989, which is a development of the basic method described by T A Connors et al, Chem Biol Interact 5, 415(1972). The in vivo L1210 tests were conducted according to the NCI protocol, Cancer Chemotherapy Reports, Part 3, vol 2, (Sept 1972) except that the animals used were DBA/2 mice and that dosing was carried out on days 1, 5 and 9. The animals were sacrificed when moribund. The compounds were administered parenterally (ip).
In the Adj/PC6 testing, LD50 and ED90 values in mg/kg body weight were determined in the conventional manner. The therapeutic index (TI) was calculated as the ratio of LD50 to ED90, and the results are shown below.
Additional tests were carried out in vivo using the compound of Example 2, against sensitive Adj/PC6 tumour cell lines, and against tumour cell lines resistant to various platinum anti-tumour agents, and a TI (Therapeutic Index) calculated, as described above.

CHI = experiment: In vitro cytotoxicity (SRB), CHI; format: cell-based, human; settings: ovarian cancer, 48 to 96 hours
Experimental: as §2, §3

[3] = Adj/PC6, comparison with cis-isomer

Compound: [NH2][Pt]([OH])([OH])([Cl])([Cl])[NH]C1CCCCC1 [EX 2, trans-[PtCl2 (OH)2 (NH3)(c-C6H11 NH2)]]
- T/C (day 28) (OVCAR-3 [1]; 1 mg/kg): 0.80
- T/C (day 28) (OVCAR-3 [1]; 2 mg/kg): 0.64
- T/C (day 28) (OVCAR-3 [1]; 4 mg/kg): 0.48
- ED90 (Adj/PC6/iproplatin res): 2.6 mg/kg
- LD50 (Adj/PC6/iproplatin res): 8.8 mg/kg
- TI (Therapeutic Index) (Adj/PC6/iproplatin res): 3.4
- Resistance Factor 41M ®/41M (41M ®/41M): 1.2
- ED90 (Adj/PC6/cisplatin res): 5.6 mg/kg
- LD50 (Adj/PC6/cisplatin res): 10.5 mg/kg
- TI (Therapeutic Index) (Adj/PC6/cisplatin res): 1.88
- IC50 (41M): 1.5 µM
- ED90 (Adj/PC6/tetraplatin res): --
- LD50 (Adj/PC6/tetraplatin res): 8.8 mg/kg
- IC50 (CHI ®): 2.2 µM
- ILS (increase in life span) (L1210): 77%
- Resistance Factor A2780 ®/A2780 (A2780 ®/A2780): 7.1
- IC50 (PXN/94): 3.7 µM
- IC50 (41M ®): 1.8 µM
- Resistance Factor CHI ®/CHI (CHI ®/CHI): 1.6
- Resistance Factor GCT27 ®/GCT27 (GCT27 ®/GCT27): 1.8
- IC50 (HX62): 5.9 µM
- IC50 (SKOV-3): 8.8 µM
- ILS (increase in life span) (Resistant L1210): 39%
- Growth Delay (OVCAR-3 [2]; 1 mg/kg): 0.9 days
- Growth Delay (OVCAR-3 [2]; 2 mg/kg): 12.0 days
- Growth Delay (OVCAR-3 [2]; 4 mg/kg): 16.8 days
- dose-related effect (OVCAR-3 xenograft) (OVCAR-3 [2]; increasing doses): clear dose-related effect
- ED90 (Adj/PC6; [3]): 0.76 mg/kg
- TI (Therapeutic Index) (Adj/PC6; [3]): 11.6
- ED90 (Adj/PC6; Adj/PC6 testing, mice, ip): 0.76 mg/kg body weight
- LD50 (Adj/PC6; Adj/PC6 testing, mice, ip): 8.8 mg/kg body weight
- TI (therapeutic index, ratio of LD50 to ED90) (Adj/PC6; Adj/PC6 testing, mice, ip): 11.6
- activity compared with the cis isomer (Adj/PC6; sensitive and platinum-resistant Adj/PC6 tumours): possesses activity, and a different spectrum of activity to the cis isomer
- IC50 (CHI): 1.4 µM
